Results reported in article PMC7796460, “Relation of Metal-Binding Property and Selective Toxicity of 8-Hydroxyquinoline Derived Mannich Bases Targeting Multidrug Resistant Cancer Cells” (Cancers, 2021).
Marks after values point to notes of the source that are not given here.

Experiments:
[1] = tested on: KB-v1 cells; assay: MTT viability assay, KB-v1; assay type: cell-based; settings: Homo sapiens, KB-V1, 72 h, MTT 72 h
Text: (§1) MDCK II canine kidney cells, A431 epidermoid carcinoma cells, the human uterine sarcoma cell lines MES-SA and the doxorubicin selected MES-SA-Dx5 were obtained from ATCC (MDCK II: No. CRL-2936™, A431: No. CRL-1555™, MES-SA: No. CRL-1976™, MES-SA/Dx5: No. CRL-1977™). ABCB1 was expressed in A431 and MES-SA cells using lentiviral transduction. The human cervix carcinoma cell line KB-3-1 and the vinblastine selected KB-v1were kind gifts from Dr. Michael M. Gottesman, National Institutes of Health. The phenotype of the resistant cells was verified using cytotoxicity assays. MDCK-B1 and MDCK-MM were established by the Sleeping Beauty transposon-based gene delivery system. OVCAR-8 and NCI-ADRres cells (obtained from the Division of Cancer Treatment and Diagnosis (DCTD) Tumor Repository (National Cancer Institute, Frederick, MD, USA)) were cultivated in RPMI-1640 (Sigma Aldrich, Budapest, Hungary), and other cell lines were cultivated in Dulbecco’s Modified Eagle Medium (DMEM, Sigma Aldrich, Budapest, Hungary), supplemented with 10% fetal bovine serum, 5 mM glutamine, and 50 unit/mL penicillin and streptomycin (Life Technologies, Carlsbad, CA, USA). All cell lines were cultivated at 37 °C, 5% CO2.
(§2) MTT viability assays were performed as described earlier with minor modifications. Briefly, cells were seeded into 96-well tissue culture plates (Sarstedt, Newton, NC, USA/Orange, Braine-l’Alleud, Belgium) at a density of 5000 cells/well and allowed to attach overnight. Test compounds were added to achieve the required final concentration in a final volume of 100 µL per well. After an incubation period of 72 h, the supernatant was removed and fresh medium containing the MTT reagent (0.083 mg/mL) was added. Incubation with MTT at 37 °C was terminated after 1 h by removing the supernatant and lysing the cells with 100 µL DMSO per well. Viability of the cells was measured spectrophotometrically based on the absorbance values at 540 nm using either a Perkin Elmer Victor X3 or an EnSpire microplate reader. Data were background corrected by subtraction of the signal obtained from unstained cell lysates and normalized to untreated cells. Curves were fitted by Prism software (GraphPad Software Inc., San Diego, CA, USA) using the sigmoidal dose-response model (comparing variable and fixed slopes). […] Significance was calculated using unpaired t-tests; results are given as *: p ≤ 0.05, **: p ≤ 0.01, ***: p ≤ 0.001, ****: p ≤ 0.0001.

[2] = tested on: MES-SA cells; assay: ROS determination with DCFDA, MES-SA; assay type: cell-based, human; settings: 2 h
Method: (§3) Measurements were performed as described earlier. Briefly, cells were harvested, washed with PBS, and incubated with 10 µM DCFDA in a water bath shaker at 37 °C for 30 min in a density of 3 × 10^6 cells/mL. After washing with PBS, cells were seeded to 96-well plates in PBS in a density of 2 × 10^4 cells/well. Following the measurement of the basal fluorescence, test compounds were added in different concentrations and the fluorescence of the samples was followed at time intervals of 10 min. DCFDA solution in buffer was used as a cell free control to test for interaction of the test compounds with DCFDA. Data were analyzed as fold change of fluorescence compared to basal levels and untreated cells. Significance was calculated using unpaired t-tests; results are given as *: p ≤ 0.05, **: p ≤ 0.01, ***: p ≤ 0.001, ****: p ≤ 0.0001.
(§4) Table S3: Characterization of intracellular ROS production with the DCFDA assay for P -gp negative MES-SA and P-gp positive MES-SA/Dx5 cells. Fold changes in fluorescence are shown after a 2 h with the investigated 8 -hydroxyquinoline ligands. Data S-refer to Figure 7 and allow […]
(§5) concentration range from 6.25µ M to 50µ M. Fold change of fluorescence obtained in the presence of 5 mM NAC is given in brackets.

[3] = tested on: MDCK cells; assay: MTT viability assay, MDCK; assay type: cell-based, canine; settings: Canis lupus familiaris, 72 h, MTT 72 h
Text: as §1, §2

[4] = tested on: MDCK-B1 cells; assay: MTT viability assay, MDCK-B1 (wild-type Pgp); assay type: cell-based, canine; settings: for IC50: Canis lupus familiaris, 72 h, MTT 72 h
Text: as §1, §2

[5] = design: method as in PMID 21275772; settings: T = 25 °C, I = 0.2 M (KCl); cited from earlier work
[6] = tested on: A431-B1 cells; assay: MTT viability assay, A431-B1; assay type: cell-based; settings: for IC50: 72 h, MTT 72 h
Text: as §1, §2

[7] = tested on: A431 cells; assay: MTT viability assay, A431; assay type: cell-based; settings: Homo sapiens, A-431, 72 h, MTT 72 h
Text: as §1, §2

[8] = tested on: MES-SA/Dx5 cells; assay: ROS determination with DCFDA, MES-SA/Dx5; assay type: cell-based, human; settings: 2 h
Method: as §3, §4, §5

[9] = tested on: MES-SA/B1 cells; assay: MTT viability assay, MES-SA/B1; assay type: cell-based, human; settings: for IC50: Homo sapiens, MES-SA, 72 h, MTT 72 h
Text: as §1, §2

[10] = tested on: OVCAR-8 cells; assay: MTT viability assay, OVCAR-8; assay type: cell-based; settings: Homo sapiens, OVCAR-8, 72 h, MTT 72 h
Text: as §1, §2

[11] = tested on: MDCK-MM cells; assay: MTT viability assay, MDCK-MM (non-functional Pgp); assay type: cell-based, canine; settings: for IC50: Canis lupus familiaris, 72 h, MTT 72 h; for SR MDCK-MM: IC50 MDCK vs. MDCK-MM
Text: as §1, §2

[12] = tested on: KB-3-1 cells; assay: MTT viability assay, KB-3-1; assay type: cell-based; settings: Homo sapiens, KB 3-1, 72 h, MTT 72 h
Text: as §1, §2

[13] = presence of 1 µM Tariquidar (values in brackets)

SMILES: Oc1cccc2cccnc12 [Compound Q-1, 8-Hydroxyquinoline]
- IC50 ([1]; absence of Tariquidar): 8.71 ± 4.43 µM
- IC50 [1, 13]: 10.8 µM
- Fold change in fluorescence (DCFDA) ([2]; 6.25 µM): 0.965± 0.12
- Fold change in fluorescence (DCFDA) ([2]; 6.25 µM, presence of 5 mM NAC (brackets)): 1.261± 0.26
- Fold change in fluorescence (DCFDA) ([2]; 12.5 µM): 0.799± 0.12
- Fold change in fluorescence (DCFDA) ([2]; 12.5 µM, presence of 5 mM NAC (brackets)): 1.148± 0.32
- Fold change in fluorescence (DCFDA) ([2]; 25 µM): 0.722± 0.22
- Fold change in fluorescence (DCFDA) ([2]; 25 µM, presence of 5 mM NAC (brackets)): 1.193± 0.44
- Fold change in fluorescence (DCFDA) ([2]; 50 µM): 0.748± 0.21
- Fold change in fluorescence (DCFDA) ([2]; 50 µM, presence of 5 mM NAC (brackets)): 0.912± 0.38
- IC50 ([3]; absence of Tariquidar): 3.27 ± 1.24 µM
- IC50 [3, 13]: 3.08 µM
- IC50 ([4]; absence of Tariquidar): 4.58 ± 1.75 µM
- IC50 [4, 13]: 15.2 µM
- SR MDCK-B1 ([4]; IC50 MDCK vs. MDCK-B1, absence of Tariquidar): 0.71
- SR MDCK-B1 ([4]; IC50 MDCK vs. MDCK-B1, presence of 1 µM Tariquidar (brackets)): 0.20
- pKa (NquinoliniumH+) [5]: 4.99 ^a
- pKa (OH) [5]: 9.51 ^a
- IC50 ([6]; absence of Tariquidar): 8.21 ± 4.04 µM
- IC50 [6, 13]: 7.06 µM
- SR A431-B1 ([6]; IC50 A431 vs. A431-B1, absence of Tariquidar): 0.31
- SR A431-B1 ([6]; IC50 A431 vs. A431-B1, presence of 1 µM Tariquidar (brackets)): 0.41
- IC50 ([7]; absence of Tariquidar): 2.35 ± 0.92 µM
- IC50 [7, 13]: 2.9 µM
- Fold change in fluorescence (DCFDA) ([8]; MES-SA/Dx5, 6.25 µM): 1.006± 0.15
- Fold change in fluorescence (DCFDA) ([8]; MES-SA/Dx5, 6.25 µM, presence of 5 mM NAC (brackets)): 1.085± 0.11
- Fold change in fluorescence (DCFDA) ([8]; MES-SA/Dx5, 12.5 µM): 0.720± 0.21
- Fold change in fluorescence (DCFDA) ([8]; MES-SA/Dx5, 12.5 µM, presence of 5 mM NAC (brackets)): 1.071± 0.12
- Fold change in fluorescence (DCFDA) ([8]; MES-SA/Dx5, 25 µM): 0.713± 0.21
- Fold change in fluorescence (DCFDA) ([8]; MES-SA/Dx5, 25 µM, presence of 5 mM NAC (brackets)): 0.971± 0.17
- Fold change in fluorescence (DCFDA) ([8]; MES-SA/Dx5, 50 µM): 0.725± 0.18
- Fold change in fluorescence (DCFDA) ([8]; MES-SA/Dx5, 50 µM, presence of 5 mM NAC (brackets)): 0.918± 0.10
- IC50 ([9]; absence of Tariquidar): 3.68 ± 0.95 µM
- IC50 [9, 13]: 4.92 µM
- SR MES-SA/B1 ([9]; IC50 MES-SA vs. MES-SA/B1, absence of Tariquidar): 1.14
- SR MES-SA/B1 ([9]; IC50 MES-SA vs. MES-SA/B1, presence of 1 µM Tariquidar (brackets)): 1.03
- IC50 ([10]; absence of Tariquidar): 3.45 ± 0.13 µM
- IC50 [10, 13]: 3.43 µM
- IC50 ([11]; absence of Tariquidar): 3.34 ± 0.6 µM
- IC50 [11, 13]: 3.59 µM
- SR MDCK-MM ([11]; absence of Tariquidar): 0.97
- SR MDCK-MM ([11]; presence of 1 µM Tariquidar (brackets)): 0.86
- IC50 ([12]; absence of Tariquidar): 8.59 ± 2.92 µM
- IC50 [12, 13]: 10.9 µM
